Laboratory results: patent US12378528B2, “Systems and methods for growth of intestinal cells in microfluidic devices” (EMULATE, INC., priority 2016, dated 2025)

Columns and labels:
[1] = system: human intestinal epithelial cells derived from IPSCs; experiment: Transepithelial electrical resistance (TEER) on microfluidic chip; type: cell-based; conditions: IFNgamma 10 ng/ml, basal administration, over time, n=4
Method: (§1) Intestinal epithelium, derived from iPSCs, is seeded onto the microfluidic device followed by characterization of intestinal epithelial subtypes. Functional assays, including an examination of permeability via transepithelial resistance and dextran FITC efflux will be assessed either under basal conditions or in response to inflammatory cytokines such as interferon-gamma (IFNg) and/or tumor necrosis factor-alpha (TNFalpha). Also drug candidates that may modulate the various intestinal epithelial subtypes will be examined to assess if such subtypes can indeed be modulated. After establishing such assays, IPSCs from genetically defined inflammatory bowel disease (IBD) patients will be generated, differentiated into intestinal organoids, disassociated and subsequently seeded onto the microfluidic devices and the functional consequences of the genetic variations associated with IBD will be assessed.
(§2) Human intestinal epithelial cells derived from IPSCs were treated with 10 ng/ml of IFNgamma. The basal administration of IFNg leads to a decrease in transepithelial resistance and an increase in the efflux of dextran FITC in human intestinal epithelial cells derived from IPSCs. Basically this means that the intestinal epithelium is more permeable in response to this cytokine.

[2] = system: human intestinal epithelial cells derived from IPSCs; experiment: FITC dextran permeability on microfluidic chip; type: cell-based; conditions: for permeability co-efficient of FITC dextran added to the apical channel / efflux of dextran FITC / accumulation in the basal layer: IFNgamma 10 ng/ml; for efflux of dextran FITC / accumulation in the basal layer: dextran added to apical channel
Method: as §1, §2

[3] = system: mitochondrial respiration in iHTNs; experiment: Seahorse mitochondrial stress test in iHTNs; type: cell-based, human
Method: (§3) The Seahorse XF^e24 Extracellular Flux Analyzer (Seahorse Biosciences) was used to perform mitochondrial stress tests and obtain real-time measurements of oxygen consumption rate (OCR) in cells. iFGEs and iHTNS treated with or without EDCs were seeded in a 24-well Seahorse culture plate at a density of 10,000-15,000 cells/well. For analysis of OCR, cells were reconstituted in Seahorse base medium and were allowed to settle for 1 hour at 37° C. in non-CO2 incubator before measurements. Chemical reagents (Sigma) were used at final concentrations as follows: 1 μM Oligomycin—an ATP synthase inhibitor, 1 μM (FCCP) carbonyl cyanide 4-(trifluoromethoxy)phenylhydrazone—an uncoupling agent, and a mixture of 0.5 μM antimycin A—a cytochrome C reductase inhibitor and 0.5 μM rotenone—a complex I inhibitor. Results were normalized to protein concentration determined by BCA assay (Thermo Scientific).

[4] = system: mitochondrial respiration in iFGEs; experiment: Seahorse mitochondrial stress test in iFGEs; type: cell-based, human
Method: as §3

[5] = system: STAT1 and IFNgamma responsive genes; experiment: STAT1 phosphorylation and gene expression in iPSC-derived intestinal epithelium on microfluidic device; type: cell-based, human; conditions: administration to the lower channel
Method: In one embodiment, iPSCs were directed to form HIOs and were subsequently dissociated to a single cell suspension. These cells were then seeded into a small microfluidic device (SMD) which is composed of two chambers separated by a porous flexible membrane. See, FIG. 40.

[6] = system: Caco2 cells; experiment: Gene expression in Caco2 cells treated with IFNgamma; type: cell-based, human

Compound | transepithelial electrical resistance (TEER) [1] | permeability co-efficient of FITC dextran added to the apical channel [2] | efflux of dextran FITC / accumulation in the basal layer [2] | effect on mitochondrial spare respiratory capacity [3] | effect on mitochondrial spare respiratory capacity [4] | also measured
TNFalpha | increased TEER over time comparable to controls | comparable | comparable | – | – | intestinal permeability ([2]; addition of TNFa): does not elicit any change
Tributyltin [TBT] | – | – | – | significant impairment | – | –
Cc1cc(C(C)(C)C)c(O)c(C(C)(C)C)c1 [BHT, Butylated hydroxytoluene] | – | – | – | significant impairment | significant decrease | –
O=C(O)C(F)(F)C(F)(F)C(F)(F)C(F)(F)C(F)(F)C(F)(F)C(F)(F)F [PFOA, Perfluorooctanoic acid] | – | – | – | did not show any effect | did not show any effect | –
IFNgamma: inflammatory cytokine interferon-gamma | loss of transepithelial electrical resistance | increase | increase | – | – | transepithelial electrical resistance (TEER) ([1]; listed as IFNg): decrease; efflux of dextran FITC / accumulation in the basal layer ([2]; listed as INFgamma): accumulation in the basal layer; expression of IFNgamma responsive genes IDO1, GBP4 and/or GBP5 [5]: significant upregulation; expression of phospholipase A2 group 2A and Muc4 [5]: also upregulated; phosphorylation of STAT1 [5]: phosphorylation of STAT1; expression of genes associated with intestinal epithelial subtypes [6]: no corresponding upregulation
